Format in all cases: cell-based, mice
Assay [1] concerns EpiSC-derived OPCs. In words: Respecification of EpiSC-derived OPCs into astrocytes. The conditions noted are these: combined treatment with BMP4 and LIF; majority of cells. On the procedure: (§1) For differentiation of OPCs into oligodendrocytes, cells were plated at 2.2×10^4 cells cm^−2 and induced with neural base medium supplemented with 0.4 ng ml^−1 T3 (Sigma-Aldrich, St. Louis, Mo.), 200 ng ml^−1 SHH, 100 ng ml^−1 noggin, 10 μM dibutyryl cyclic-AMP sodium salt, 100 ng ml^−1 IGF-1 and 10 ng ml^−1 NT3. Attempts to modulate the outcome of this differentiation paradigm included treatments with Jag1 (R&D Systems, Minneapolis, Minn.), CHIR99021 (Stemgent, San Diego, Calif.), LIF (Millipore, Billerica, Mass.) and/or BMP4 (R&D Systems, Minneapolis, Minn.).
The final treatment involved exposure of EpiSC-derived OPCs to signaling cascades known to respecify OPCs in vitro into an alternate glial fate, astrocytes.

For assay [2], the system named is EpiSC-derived OPCs. Put plainly: Modulation of OPC differentiation by extrinsic factors in T3 differentiation medium. How it is done: as §1
Next, the ability of extrinsic factors to modulate the differentiation of Epi-SC-derived OPCs was explored. […] As a simple proof-of-principle for using the system to screen for compounds, EpiSC-derived OPCs were exposed to three different treatment regimens involving modulation of signaling pathways (Notch, Wnt-β-catenin and BMP) previously implicated in oligodendrocyte development or differentiation. […] Using a similar protocol, the role of GSK3β, a negative regulator of Wnt-β-catenin signaling, was tested by treating EpiSC-derived OPCs with the GSK3β inhibitor CHIR99021.

The test system of assay [3] is EpiSC-derived OPCs. Put plainly: Differentiation of EpiSC-derived OPCs into oligodendrocytes. Particulars: day 2 of differentiation, absence of FGF2 and PDGF-AA, n>480 cells. On the procedure:
as §1
Live-cell staining was used for the cell-surface marker O4. Live cells were blocked with 10% normal goat serum and treated with O4 antibody for 20 min at 37° C. Cells were gently rinsed three times with warm neural base medium and fixed in 4% paraformaldehyde. […]
To determine the differentiation capacity of the EpiSC-derived OPCs, the EpiSc-derived OPCs were treated with thyroid hormone (T3), which is known to be important both in vitro and in vivo in regulating the transition of OPCs into oligodendrocytes, in the absence of both FGF2 and PDGF-AA. […] By day 4, the overwhelming majority of EpiSC-derived OPCs had become oligodendrocytes, though cell death and rare proliferation events made exact quantification challenging without large-scale time-lapse lineage analysis. […]

In assay [4] the test system is EpiSC-derived patterned neuroectoderm. Put plainly: Region-specific patterning of EpiSC-derived neuroectoderm. The conditions noted are these: Day-4 neuroectoderm treated 1 day with retinoic acid and SHH in continued presence of noggin (combined).
Method: On day 4, cultures were fed with neural base medium supplemented with 100 ng ml^−1 noggin, 10 μM retinoic acid (Sigma-Aldrich, St. Louis, Mo.; maintained as a 20 mM stock solution in DMSO) and 200 ng ml^−1 SHH (R&D Systems; C24II). To test whether the induced patterned neuroectoderm behaved as un-induced neuroectoderm behaves, the induced EpiSC-derived patterned neuroectoderm were patterned in a region-specific manner. […] Day-4 EpiSC-derived patterned neuroectoderm was treated for 1 day with specific concentrations of retinoic acid and SHH in the continued presence of noggin to pattern them in a region-specific way.

Experimental findings from patent publication US9193951B2, “Differentiation method for production of glial cell populations” (Case Western Reserve University, priority 2010, dated 2015) are described below.

In the case of “LIF: leukemia inhibitory factor, activator of JAK/STAT pathways”, the “respecification into astrocytes (morphological and gene expression changes)” value in assay [1] is on record as “upregulation of GFAP”.
Regarding `Cc1c[nH]c(-c2cnc(NCCNc3ccc(C#N)cn3)nc2-c2ccc(Cl)cc2Cl)n1` [CHIR99021], the “expression of mature oligodendrocyte markers” value in assay [2] (FIG. 5, treatment of OPCs) is given as “suppression”. The “oligodendrocyte differentiation (progression of Olig2+ OPCs to O4+ oligodendrocytes)” value in assay [2] (T3 differentiation medium, FIG. 5) is on record as “concentration-dependent inhibition”.
With `N[C@@H](Cc1cc(I)c(Oc2ccc(O)c(I)c2)c(I)c1)C(=O)O` [T3, triiodothyronine], the “cells strongly O4+ with multiprocessed morphology” value in assay [3] is “greater than 64%”.
For “Jagged1: the Notch ligand Jagged1 (Jag1)”, the “rate or number of O4+ oligodendrocytes” value in assay [2] (2 days, T3 differentiation medium) was “did not impact”.

B1: noggin: a BMP antagonist; secreted polypeptide encoded by the NOG gene (protein, UniProt Q13253 28-232, looked up)
Noggin: QHYLHIRPAPSDNLPLVDLIEHPDPIFDPKEKDLNETLLRSLLGGHYDPGFMATSPPEDRPGGGGGAAGGAEDLAELDQLLRQRPSGAMPSEIKGLEFSEGLAQGKKQRLSKKLRRKLQMWLWSQTFCPVLYAWNDLGSRFWPRYVKVGSCFSKRSCSVPEGMVCKPSKSVHLTVLRWRCQRRGGQRCGWIPIQYPIISECKCSC
For B1, in assay [4], the “expression of OPC-relevant transcription factors Olig2 and Nkx2.2” value is reported as “upregulation”.

B2: BMP4: bone morphogenetic protein 4, ligand of the TGF beta superfamily (protein, UniProt P12644 293-408, looked up)
Bone morphogenetic protein 4: SPKHHSQRARKKNKNCRRHSLYVDFSDVGWNDWIVAPPGYQAFYCHGDCPFPLADHLNSTNHAIVQTLVNSVNSSIPKACCVPTELSAISMLYLDEYDKVVLKNYQEMVVEGCGCR
For B2, the “respecification into astrocytes (morphological and gene expression changes)” value in assay [1] is recorded as “upregulation of GFAP”.
